Legend:
Format in all cases: in vivo
[1] = test system: Housefly [Musca domestica]; assay: Housefly insecticidal test; settings: μg per 25 female flies; mortality after 48 hours
Procedure, shortened: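 Acetone solutions (with 0.01% peanut oil) dried onto dish bottoms, then 25 female flies, 1-2 days old, caged over the residue with sugar water. Mortality scored at 48 hours; LC50 from dosage-mortality curves, in μg per 25 female flies, top level 100 μg.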

[2] = test system: Maize weevil [Sitophilus Zeamais (Motschulsky)]; assay: Maize weevil insecticidal test; settings: adult weevils, percent in solution; 48 hours
Method: The compounds in Tables 1 and 2 above were tested for insecticidal activity using the following testing procedures. LC50 values, based on the results of these tests and calculated according to dosage-mortality curves, are expressed in Table 3.
Maize weevil [Sitophilus Zeamais (Motschulsky)]:
Test compounds were diluted in a 50:50 acetone:water solution. Four corn seeds [Zea mays (L.)] which had been immersed in test solutions for 2-3 seconds and allowed to dry were placed in containers together with 10 adult weevils. The containers were covered and kept at a temperature of about 25° C. Mortality was recorded after 48 hours. Test concentrations ranged from 0.01% down to that at which 50% mortalilty occurred. The LC50 values are expressed below in Table 3 under the heading "MW" in terms of percent of the test compound in solution.

[3] = test system: Cabbage Looper [Trichoplusia ni (Hubner)]; assay: Cabbage looper insecticidal test; settings: second-instar larvae, percent in solution; 3-5 days
Procedure, shortened: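 Compounds in 50-50 acetone-water were applied by dipping squash cotyledons (about 1×1.5 in) for 2-3 s; dried leaves went into petri dishes on moist filter paper with 5 second-instar larvae under high humidity. Mortality was scored after 3-5 days; LC50 from dosage-mortality curves, as percent compound in solution.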

[4] = test system: Tobacco Budworm [Heliothis virescens (Fabricius)] eggs; assay: Tobacco budworm egg test; settings: 2-day old eggs, percent in solution
Procedure, shortened: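 Paper towel patches bearing 2-day old eggs were dipped in acetone solutions of compound, then set in petri dishes over larval rearing medium at 78° F. Mortality was scored once all control eggs had hatched and larvae were feeding. LC50, from dosage-mortality curves, is given as percent compound in solution.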

SMILES | LC50, HF [1] [µg] | LC50, MW [2] [%] | LC50, CL [3] [%] | LC50, TBW, E (TBW-E) [4] [%]
Clc1ccc(N=C(OCc2cccc(Oc3ccccc3)c2)C2CCC2)cc1 [Compound 8] | 50 | > 0.01 | 0.01 | > 0.1
CC(C)(C)C(=Nc1cccc(C(F)(F)F)c1)OCc1cccc(Oc2ccccc2)c1 [Compound 88] | > 100 | > 0.01 | 0.018 | > 0.1
Fc1ccc(Oc2cccc(COC(=Nc3ccc(F)c(Cl)c3)C3CC3)c2)cc1 [Compound 116] | 15 | > 0.01 | 0.00025 | 0.05
CCc1ccc(N=C(OCc2cccc(Oc3ccccc3)c2)C(C)(C)C)cc1 [Compound 163] | > 100 | > 0.01 | 0.004 | > 0.1
CC(C)C(=Nc1ccc(F)c(Cl)c1)OCc1cccc(Oc2cccc(Cl)c2)c1 [Compound 203] | 43 | > 0.01 | 0.0025 | 0.06
CC(C)C(=Nc1cc(F)c(Cl)cc1Cl)OCc1ccc(F)c(Oc2ccc(F)cc2)c1 [Compound 292] | 41 | > 0.01 | 0.00075 | 0.05
Fc1ccc(Oc2cccc(COC(=Nc3cccc(C(F)(F)F)c3)C3CC3)c2)cc1 [Compound 294] | > 100 | > 0.01 | 0.017 | > 0.1
CC(C)C(=Nc1ccc(F)c(Br)c1)OCc1ccc(F)c(Oc2ccccc2)c1 [Compound 299] | 8 | > 0.01 | 0.0005 | 0.017
Fc1c(F)c(F)c(COC(=Nc2cccc(Cl)c2Cl)C(Cl)Cl)c(F)c1F [Compound 454] | > 100 | – | 0.03 | > 0.1
Cc1c(COC(=Nc2ccc(Cl)cc2)C(C)C)cccc1-c1ccccc1 [Compound 455] | > 100 | – | 0.0025 | > 0.1
Cc1c(COC(=Nc2ccc(F)cc2)C(C)C)cccc1-c1ccccc1 [Compound 458] | 100 | – | 0.007 | > 0.05
CC(C)C(=Nc1ccc2c(c1)OCO2)OCc1c(F)c(F)c(F)c(F)c1F [Compound 464] | > 100 | – | 0.08 | > 0.1
CC(C)C(=Nc1ccc2c(c1)OCO2)OCc1cccc(Oc2ccccc2)n1 [Compound 467] | 6 | – | 0.003 | 0.04
CC(C)C(=Nc1ccc2c(c1)OC(C)(C)O2)OCc1cccc(Oc2ccc(Cl)cc2)n1 [Compound 468] | 50 | – | > 0.1 | > 0.1
CC(C)C(=Nc1cccc(C(F)(F)F)c1)OCc1cccc(Oc2ccncc2)c1 [Compound 469] | 40 | – | 0.02 | > 0.1
CC(C)C(=Nc1ccc(F)c(Cl)c1)OCc1cccc(Oc2ccncc2)c1 [Compound 470] | 25 | – | 0.02 | > 0.1
CC(C)C(=Nc1ccc(F)c(Cl)c1)OCc1cccc(OCc2ccccc2)c1 [Compound 472] | > 100 | – | 0.0025 | > 0.1
CC(C)C(=Nc1ccc(F)c(Cl)c1)OCc1ccc(F)c(Br)c1 [Compound 473] | > 100 | – | 0.025 | > 0.1

SMILES | LC50, HF [1] [µg] | LC50, MW [2] [%] | LC50, CL [3] [%] | LC50, TBW, E (TBW-E) [4] [%]
CC(C)C(=Nc1ccc(F)c(Cl)c1)OCc1coc(Cc2ccccc2)c1 [Compound 474] | 8 | – | 0.0012 | > 0.1
CC(C)C(=Nc1cccc(C(F)(F)F)c1)OCc1ccc(OCc2ccccc2)cc1 [Compound 476] | > 100 | – | 0.015 | > 0.1
C=CCOc1cccc(COC(=Nc2cccc(C(F)(F)F)c2)C(C)C)c1 [Compound 480] | > 100 | – | 0.01 | > 0.1
C=CCOc1cccc(COC(=Nc2ccc(Cl)c(Cl)c2)C(C)C)c1 [Compound 481] | > 100 | – | 0.015 | > 0.1
CC(C)C(=Nc1ccc(Cl)cc1)OCc1coc(Cc2ccccc2)c1 [Compound 484] | 16 | – | 0.003 | > 0.1
CC(C)C(=Nc1ccc(F)c(F)c1)OCc1coc(Cc2ccccc2)c1 [Compound 485] | 24 | – | > 0.1 | > 0.1
CC(C)C(=Nc1ccc(F)c(Cl)c1)OCc1ccc(OCc2ccc(F)cc2)cc1 [Compound 487] | > 100 | – | 0.023 | > 0.1
CC(C)C(=Nc1cccc(C(F)(F)F)c1)OCc1ccc(OCc2ccc(F)cc2)cc1 [Compound 488] | > 100 | – | 0.025 | > 0.1
CC(C)C(=Nc1cccc(C(F)(F)F)c1)OCc1cccc(OCc2ccc(F)cc2)c1 [Compound 489] | > 100 | – | < 0.1 | > 0.1
CC(C)C(=Nc1ccc(F)cc1)OCc1coc(Cc2ccccc2)c1 [Compound 491] | 9 | – | 0.0028 | 0.08
CC(C)C(=Nc1cccc(C(F)(F)F)c1)OCc1cccc(Oc2ccc(Br)cc2)n1 [Compound 493] | 36 | – | 0.0008 | 0.05
Cc1ccc(Oc2cccc(COC(=Nc3ccc(F)c(Cl)c3)C(C)C)n2)cc1 [Compound 494] | 34 | – | 0.003 | > 0.1
Cc1ccc(Oc2cccc(COC(=Nc3cccc(C(F)(F)F)c3)C(C)C)n2)cc1 [Compound 495] | > 100 | – | 0.012 | 0.1
CC(C)C(=Nc1ccc(C(C)(C)C)cc1)OCc1cccc(Oc2ccccc2)n1 [Compound 496] | > 100 | – | 0.006 | > 0.1
CC(C)C(=Nc1ccc(C(C)(C)C)cc1)OCc1cccc(Oc2ccc(Cl)cc2)n1 [Compound 497] | > 100 | – | 0.0075 | > 0.1
CC(C)C(=Nc1ccc(F)c(Cl)c1)OC(C)c1cccc(Oc2ccccc2)n1 (centres unmarked) [Compound 498] | 49 | – | 0.002 | > 0.1
CC(C)C(=Nc1cccc(C(F)(F)F)c1)OC(C)c1cccc(Oc2ccccc2)n1 (centres unmarked) [Compound 499] | 63 | – | 0.0024 | > 0.1
COCc1c(F)c(F)c(COC(=Nc2ccc3c(c2)OCO3)C(C)C)c(F)c1F [Compound 501] | 20 | – | 0.00045 | > 0.1

From patent US5070210A, “Novel ketenimines as intermediates for insecticides” (ICI Americas Inc., priority 1990, dated 1991)
